The record followed here is patent US12162858B2, “Quinoline derivatives as inhibitors of AXL/MER RTK and CSF1R” (QURIENT CO., LTD., priority 2018, dated 2024).

In general, Kd refers to the equilibrium constant for the complex coming apart.

Each structure is given as a SMILES string.

For the first assay, the target named is T1, Mer (Homo sapiens, UniProt Q12866).
T1 construct: purchased Life Technologies
T1 sequence (Q12866 21-999): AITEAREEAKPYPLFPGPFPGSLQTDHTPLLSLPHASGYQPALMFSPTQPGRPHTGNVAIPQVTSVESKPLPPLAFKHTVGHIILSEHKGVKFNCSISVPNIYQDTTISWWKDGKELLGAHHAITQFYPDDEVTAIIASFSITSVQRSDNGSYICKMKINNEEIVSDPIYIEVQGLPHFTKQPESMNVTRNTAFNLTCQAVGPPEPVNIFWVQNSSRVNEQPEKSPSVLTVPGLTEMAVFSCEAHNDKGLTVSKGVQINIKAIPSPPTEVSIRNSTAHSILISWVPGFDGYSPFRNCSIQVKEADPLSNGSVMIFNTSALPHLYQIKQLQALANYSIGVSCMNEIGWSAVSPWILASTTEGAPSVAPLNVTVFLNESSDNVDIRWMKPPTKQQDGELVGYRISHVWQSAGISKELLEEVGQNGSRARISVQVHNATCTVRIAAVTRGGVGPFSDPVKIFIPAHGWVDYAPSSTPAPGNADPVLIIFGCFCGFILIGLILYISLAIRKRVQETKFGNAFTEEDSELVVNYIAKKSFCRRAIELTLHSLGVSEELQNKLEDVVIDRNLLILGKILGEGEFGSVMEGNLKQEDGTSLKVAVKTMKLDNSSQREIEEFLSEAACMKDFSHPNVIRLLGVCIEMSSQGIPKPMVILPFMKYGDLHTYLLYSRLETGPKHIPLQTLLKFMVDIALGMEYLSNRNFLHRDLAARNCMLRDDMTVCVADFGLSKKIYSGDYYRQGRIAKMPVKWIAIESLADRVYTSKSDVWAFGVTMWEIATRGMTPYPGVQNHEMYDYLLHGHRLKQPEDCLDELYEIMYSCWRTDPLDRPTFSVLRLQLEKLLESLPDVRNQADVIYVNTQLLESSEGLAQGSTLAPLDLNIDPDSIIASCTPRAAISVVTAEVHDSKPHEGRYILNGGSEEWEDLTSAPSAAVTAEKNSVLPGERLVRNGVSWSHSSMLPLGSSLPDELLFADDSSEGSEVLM
The experiment in a line: LanthaScreen Eu kinase binding assay for Mer. Particulars: comparison of compounds of present invention (**) vs compounds of WO2016/166250 (*); read-out: Binding activity Mer (Kd). On the procedure:
LanthaScreen® Eu Kinase Binding assays were conducted at Life Technologies using the manufacturer's specifications for each kinase indicated.
Briefly, the principle behind this assay is based upon the binding and displacement of an Alexa Fluor 647-labeled tracer to the kinase of interest. Binding of the tracer to the kinase is detected using an EU-labeled anti-tag antibody. Simultaneous binding of both the tracer and antibody to the kinase gives rise to a FRET-signal. Binding of an inhibitor to the kinase competes for binding with the tracer, resulting in a loss of FRET-signal.
A given compound was diluted in DMSO to make a stock compound solution. The stock compound solution was serially diluted over eight steps in DMSO. Each diluted compound solution in DMSO was diluted in kinase buffer. Afterwards four kinds of working solution were prepared. First, Tracer-Working solution consists of Tracer 236 and Kinase Buffer. Second, Axl, Mer, Tyro3 or Met/anti-GST-AB-Working solution contained one of the kinases Axl, and Mer or anti-GST-AB (=anti glutathione-S-transferase antibody) in Kinase Buffer. Third, anti-GST-AB-Working solution was made with anti-GST-AB and Kinase Buffer. Last, in the DMSO-Working solution DMSO was added to Kinase Buffer to a final concentration to 3%. Each of the four kinds of working solutions were separately added to the assay plate and then incubated for 1 h at room temperature. After incubation, the assay plate was measured with respect to the FRET-Signal with the EnVision (Perkin Elmer) using the program LanthaHTRF-Assay. Data evaluation was done in the Quattro Workflow software. Kd (the equilibrium dissociation constant) values were calculated relative to vehicle (DMSO) control wells.
For `COCCn1cc(OCC(F)(F)F)c(C(=O)Nc2ccc(Oc3ccnc4cc(OC)c(OC)cc34)cn2)n1` [Compound 10], the Kd came out at 0.2 nM.

With `COc1cc2nccc(Oc3ccc(NC(=O)c4n[nH]cc4OCC(F)(F)F)nc3)c2cc1OC` [Compound 16], the Kd came out at 12 nM.

The assay is the same for the next values; noted with them: read-out: Mer kinase binding activity (Kd).
For the compound `COCCn1cc(OCC(F)(F)F)c(C(=O)Nc2ccc(Oc3ccnc4cc(OC)c(OC)cc34)cn2)n1` [Compound 10], the Kd is below 100 nM.

In the case of `COc1cc2nccc(Oc3ccc(NC(=O)c4nn(C5CCCC5)cc4OCC(F)(F)F)cn3)c2cc1OC` [Compound 131], the Kd was below 100 nM.

Take `COc1cc2nccc(Oc3ccc(NC(=O)c4nn(C5CCN(C)C5)cc4OCC(F)(F)F)nn3)c2cc1OC` (stereo not drawn) [Compound 157]: the Kd was 100 to 500 nM.

`COc1cc2nccc(Oc3ccc(NC(=O)c4nn(C5CC5)cc4OC(C)C)nc3)c2cc1OC` [Compound 108]: the Kd is below 100 nM.

As to `COc1cc2nccc(Oc3ccc(NC(=O)c4nn(CCOC5CC5)cc4OCC(F)(F)F)cn3)c2cc1OC` [Compound 130], the Kd was below 100 nM.

Turning to `COc1cc2nccc(Oc3ccc(NC(=O)c4nn(C5CC5)cc4OCC4COC4)nn3)c2cc1OC` [Compound 161], the Kd was below 100 nM.

With `COc1cc2nccc(Oc3ccc(NC(=O)c4nn(CC(C)C)cc4OCC(F)(F)F)nn3)c2cc1OC` [Compound 124], the Kd was below 100 nM.

Turning to `CCCn1cc(OCCOC)c(C(=O)Nc2ccc(Oc3ccnc4cc(OC)c(OC)cc34)cn2)n1` [Compound 105], the Kd is below 100 nM.

Take `COc1cc2nccc(Oc3ccc(NC(=O)c4nn(C5CC5)cc4OCC(F)(F)F)nn3)c2cc1OC` [Compound 112]: the Kd is below 100 nM.

Regarding `COc1cc2nccc(Oc3ccc(NC(=O)c4nn(CCOC5CC5)cc4OCC(F)(F)F)nc3)c2cc1OC` [Compound 153], the Kd is below 100 nM.

For the compound `COc1cc2nccc(Oc3ccc(NC(=O)c4nn(C5CC5)cc4NCCC(F)(F)F)nn3)c2cc1OC` [Compound 146], the Kd was below 100 nM.

Regarding `COc1cc2nccc(Oc3ccc(NC(=O)c4nn(CCN(C)C)cc4OCC(F)(F)F)nc3)c2cc1OC` [Compound 9], the Kd was below 100 nM.

For `CNCCn1cc(OCC(F)(F)F)c(C(=O)Nc2ccc(Oc3ccnc4cc(OC)c(OC)cc34)cn2)n1` [Compound 11], the Kd was below 100 nM.

As for `CNCCn1cc(OCC(F)(F)F)c(C(=O)Nc2ccc(Oc3ccnc4cc(OC)c(OC)cc34)nc2)n1` [Compound 137], the Kd was at least 500 nM.

On to `COCCn1cc(OCC(F)(F)F)c(C(=O)Nc2ccc(Oc3ccnc4cc(OC)c(OC)cc34)nn2)n1` [Compound 126], for which the Kd is below 100 nM.

For the compound `COCCn1cc(OCC(F)(F)F)c(C(=O)Nc2ccc(Oc3ccnc4cc(OC)c(OC)cc34)nc2)n1` [Compound 104], the Kd was below 100 nM.

As for `COc1cc2nccc(Oc3ccc(NC(=O)c4nn(CC(C)O)cc4OCC(F)(F)F)cn3)c2cc1OC` (stereo not drawn) [Compound 136], the Kd was below 100 nM.

For the compound `COc1cc2nccc(Oc3ccc(NC(=O)c4nn(C5CCN(C)C5)cc4OCC(F)(F)F)cc3)c2cc1OC` (stereo not drawn) [Compound 100], the Kd was below 100 nM.

Turning to `COc1cc2nccc(Oc3ccc(NC(=O)c4nn(C5CC5)cc4OCCF)nn3)c2cc1OC` [Compound 113], the Kd is below 100 nM.

In the case of `COc1cc2nccc(Oc3ccc(NC(=O)c4n[nH]cc4OCC(F)(F)F)nc3)c2cc1OC` [Compound 16], the Kd was below 100 nM.

As for `COc1cc2nccc(Oc3ccc(NC(=O)c4nn(CCOC5CC5)cc4OCC(F)(F)F)cc3C)c2cc1OC` [Compound 117], the Kd was below 100 nM.

Regarding `CNCCn1cc(OCC(F)(F)F)c(C(=O)Nc2ccc(Oc3ccnc4cc(OC)c(OC)cc34)nn2)n1` [Compound 127], the Kd is at least 500 nM.

For the compound `COc1cc2nccc(Oc3ccc(NC(=O)c4nn(C5CC5)cc4OCC4CCC4)nc3)c2cc1OC` [Compound 111], the Kd is below 100 nM.

Regarding `COc1cc2nccc(Oc3ccc(NC(=O)c4nn(CCOC5CC5)cc4OCC(F)(F)F)nn3)c2cc1OC` [Compound 120], the Kd was below 100 nM.

With `CNCCOc1cn(C2CC2)nc1C(=O)Nc1ccc(Oc2ccnc3cc(OC)c(OC)cc23)nn1` [Compound 160], the Kd is at least 500 nM.

Regarding `CCn1cc(OCC2CCC2)c(C(=O)Nc2ccc(Oc3ccnc4cc(OC)c(OC)cc34)cn2)n1` [Compound 8], the Kd was below 100 nM.

Take `COc1cc2nccc(Oc3ccc(NC(=O)c4nn(C5CC5)cc4OCC(F)F)nc3)c2cc1OC` [Compound 109]: the Kd was below 100 nM.

Turning to `CCCn1cc(OCCN(C)C)c(C(=O)Nc2ccc(Oc3ccnc4cc(OC)c(OC)cc34)c(F)c2)n1` [Compound 165], the dissociation constant Kd was at least 500 nM.

As for `COc1cc2nccc(Oc3ccc(NC(=O)c4nn(CC5COC5)cc4OCC(F)(F)F)cc3)c2cc1OC` [Compound 101], the Kd was below 100 nM.

Regarding `COc1cc2nccc(Oc3ccc(NC(=O)c4nn(CC5COC5)cc4OCC(F)(F)F)cn3)c2cc1OC` [Compound 134], the Kd is below 100 nM.

With `CCCn1cc(NCCC(F)(F)F)c(C(=O)Nc2ccc(Oc3ccnc4cc(OC)c(OC)cc34)cn2)n1` [Compound 158], the Kd is below 100 nM.
